Data: publication PMC4883699 (Bioorganic & medicinal chemistry, 2009)

What was measured:
[1] = test system: Plasmodium falciparum (D6 clone, Sierra Leone, chloroquine sensitive); experiment: In vitro antimalarial activity, chloroquine sensitive D6 clone; assay type: cell-based; details: D6, read-out: P. falciparum (D6 Clone) IC50
[2] = test system: Plasmodium falciparum (W2 clone, IndoChina, chloroquine resistant); experiment: In vitro antimalarial activity, chloroquine resistant W2 clone; assay type: cell-based; details: W2, read-out: P. falciparum (W2 Clone) IC50
[3] = test system: P. berghei (NK-65 strain); experiment: In vivo antimalarial activity in P. berghei infected mice; parameters: species or system mice (Swiss Webster); details: for apparent toxicity in vivo: oral, 30 mg/kg once daily for three days, mice
[4] = test system: Mycobacterium intracellulare; experiment: In vitro antimicrobial activity, M. intracellulare; assay type: cell-based; details: read-out: M. intracellulare IC50
[5] = test system: African green monkey kidney fibroblast cells (Vero); details: cited from earlier work
[6] = test system: malaria parasite; details: cited from earlier work; for reduction in parasitemia: oral, 2 × 100 μmol/kg; for survival times versus chloroquine or artemisinin treated mice: single dose 50 or 100 μmol/kg
[7] = Cytotoxicity on Vero cells; details: African green monkey
[8] = in vitro; details: African green monkey
[9] = Vero cells (African green monkey kidney fibroblast cells)

**Q.** Which results are given for CCN(CC)CCCC(C)Nc1ccnc2cc(Cl)ccc12 (centres unmarked) [Chloroquine]?
**A.** IC50 [1]: 50 nM; IC50 [2]: 484 nM; suppression of the parasitemia ([3]; chloroquine control, 10 mg/kg, three doses): 100%

**Q.** For O[C@]12C=C(c3nccc4c3[nH]c3ccccc34)[C@@H]3CCN(CCCC/C=C\CC1)C[C@@]31C[C@@H]3/C=C\CCCCN3[C@H]12 [Compound 1, Manzamine A], which IC50 [4] is on record?
**A.** 640 nM

**Q.** What about the “TC50 against Vero cells” value [5] of the same compound?
**A.** 365 nM

**Q.** And the reduction in parasitemia [6]?
**A.** 90%

**Q.** And the “survival times versus chloroquine or artemisinin treated mice” value [6]?
**A.** significant improvements in survival times

**Q.** What about the IC50 [7] of the same compound?
**A.** 365 nM

**Q.** For Oc1cccc2c1[nH]c1c(C3=C[C@@]4(O)CC/C=C\CCCCN5CC[C@@H]3[C@]3(C[C@@H]6/C=C\CCCCN6[C@H]34)C5)nccc12 [Compound 2, 8-Hydroxymanzamine A], which reduction in parasitemia [6] is on record?
**A.** 90%

**Q.** What about the “survival times versus chloroquine or artemisinin treated mice” value [6] of the same compound?
**A.** significant improvements in survival times

**Q.** For CCC(=O)Nc1ccc2[nH]c3c(C4=C[C@@]5(O)CC/C=C\CCCCN6CC[C@@H]4[C@]4(C[C@@H]7/C=C\CCCCN7[C@H]45)C6)nccc3c2c1 [Compound 6, 6-n-Propamidomanzamine A], which IC50 [7, 9] is on record?
**A.** > 470 nM

**Q.** For CC(C)C(=O)Nc1ccc2[nH]c3c(C4=C[C@@]5(O)CC/C=C\CCCCN6CC[C@@H]4[C@]4(C[C@@H]7/C=C\CCCCN7[C@H]45)C6)nccc3c2c1 [Compound 8, 6-Isobutamidomanzamine A], which IC50 [7] is on record?
**A.** > 470 nM

**Q.** For CCCCC(=O)Nc1ccc2[nH]c3c(C4=C[C@@]5(O)CC/C=C\CCCCN6CC[C@@H]4[C@]4(C[C@@H]7/C=C\CCCCN7[C@H]45)C6)nccc3c2c1 [Compound 9, 6-n-Pentamidomanzamine A], which IC50 [8] is on record?
**A.** > 470 nM

**Q.** Which IC50 [7, 9] does the source give for CC(C)(C)C(=O)Nc1ccc2[nH]c3c(C4=C[C@@]5(O)CC/C=C\CCCCN6CC[C@@H]4[C@]4(C[C@@H]7/C=C\CCCCN7[C@H]45)C6)nccc3c2c1 [Compound 10, 6-Pivalamidomanzamine A] here?
**A.** > 470 nM

**Q.** For CCCCCC(=O)Nc1ccc2[nH]c3c(C4=C[C@@]5(O)CC/C=C\CCCCN6CC[C@@H]4[C@]4(C[C@@H]7/C=C\CCCCN7[C@H]45)C6)nccc3c2c1 [Compound 11, 6-n-Hexamidomanzamine A], which IC50 [8] is on record?
**A.** > 470 nM

**Q.** With CC(C)(C)CC(=O)Nc1ccc2[nH]c3c(C4=C[C@@]5(O)CC/C=C\CCCCN6CC[C@@H]4[C@]4(C[C@@H]7/C=C\CCCCN7[C@H]45)C6)nccc3c2c1 [Compound 13, 6-(t-Butyl)-acetamidomanzamine A] as the compound, how does the IC50 [7, 9] read?
**A.** > 470 nM

**Q.** Which “apparent toxicity in vivo” value [3] does the source give for O=C(Nc1ccc2[nH]c3c(C4=C[C@@]5(O)CC/C=C\CCCCN6CC[C@@H]4[C@]4(C[C@@H]7/C=C\CCCCN7[C@H]45)C6)nccc3c2c1)C1CCCCC1 [Compound 14, 6-Cyclohexamidomanzamine A] here?
**A.** no apparent toxicity

**Q.** And the IC50 [7]?
**A.** > 470 nM

**Q.** Which IC50 [7, 9] does the source give for CC(C)C(=O)Nc1cccc2c1[nH]c1c(C3=C[C@@]4(O)CC/C=C\CCCCN5CC[C@@H]3[C@]3(C[C@@H]6/C=C\CCCCN6[C@H]34)C5)nccc12 [Compound 18, 8-Isobutamidomanzamine A] here?
**A.** > 470 nM

**Q.** With CCCCC(=O)Nc1cccc2c1[nH]c1c(C3=C[C@@]4(O)CC/C=C\CCCCN5CC[C@@H]3[C@]3(C[C@@H]6/C=C\CCCCN6[C@H]34)C5)nccc12 [Compound 19, 8-n-Pentamidomanzamine A] as the compound, how does the IC50 [8] read?
**A.** > 470 nM

**Q.** With CCCCCC(=O)Nc1cccc2c1[nH]c1c(C3=C[C@@]4(O)CC/C=C\CCCCN5CC[C@@H]3[C@]3(C[C@@H]6/C=C\CCCCN6[C@H]34)C5)nccc12 [Compound 21, 8-n-Hexamidomanzamine A] as the compound, how does the “apparent toxicity in vivo” value [3] read?
**A.** no apparent toxicity

**Q.** For CC(C)(C)CC(=O)Nc1cccc2c1[nH]c1c(C3=C[C@@]4(O)CC/C=C\CCCCN5CC[C@@H]3[C@]3(C[C@@H]6/C=C\CCCCN6[C@H]34)C5)nccc12 [Compound 23, 8-(t-Butyl)-acetamidomanzamine A], which IC50 [8] is on record?
**A.** > 470 nM

**Q.** With O=C(Nc1cccc2c1[nH]c1c(C3=C[C@@]4(O)CC/C=C\CCCCN5CC[C@@H]3[C@]3(C[C@@H]6/C=C\CCCCN6[C@H]34)C5)nccc12)C1CCCCC1 [Compound 24, 8-Cyclohexamidomanzamine A] as the compound, how does the IC50 [8] read?
**A.** > 470 nM
